For one test, the target named is T1, human plasma kallikrein (Homo sapiens, UniProt P03952).
T1 construct: purchased Kordia
Kind of test: Determination of the plasma kallikrein activity (fluorogenic peptide substrate H-Pro-Phe-Arg-AMC). It is filed as biochemical. The note with it: plasma kallikrein from Kordia, 15 min preincubation, 30 min at 22° C., fluorescence; some as mean values from multiple determinations. The method, then: To determine the plasma kallikrein inhibition of the substances according to the invention, a biochemical test system is used which utilizes the reaction of a peptidic plasma kallikrein substrate to determine the enzymatic activity of human plasma kallikrein. Here, plasma kallikrein cleaves from the peptidic plasma kallikrein substrate the C-terminal aminomethylcoumarin (AMC), the fluorescence of which is measured. The determinations are carried out in microtitre plates.
Test substances are dissolved in dimethyl sulfoxide and serially diluted in dimethyl sulfoxide (3000 μM to 0.0078 μM; resulting final concentrations in the test: 50 μM to 0.00013 μM). In each case 1 μl of the diluted substance solutions is placed into the wells of white microtitre plates from Greiner (384 wells). 20 μl of assay buffer (50 mM Tris/HCl pH 7.4; 100 mM sodium chloride solution; 5 mM of calcium chloride solution; 0.1% of bovine serum albumin) and 20 μl of plasma kallikrein from Kordia (0.6 nM in assay buffer) are then added successively. After 15 min of incubation, the enzyme reaction is started by addition of 20 μl of the substrate H-Pro-Phe-Arg-AMC dissolved in assay buffer (10 μM in assay buffer) from Bachem, the mixture is incubated at room temperature (22° C.) for 30 min and fluorescence is then measured (excitation: 360 nm, emission: 460 nm). The measured emissions of the test batches with test substance are compared to those of control batches without test substance (only dimethyl sulfoxide instead of test substance in dimethyl sulfoxide), and IC50 values are calculated from the concentration/activity relationships. Activity data from this test are listed in Table B below (some as mean values from multiple independent individual determinations): […]

The target of a further test is T2, human factor XIa (Homo sapiens, UniProt P03951).
T2 construct: purchased Kordia
Kind of test: Measurement of FXIa inhibition (fluorogenic peptide substrate Boc-Glu(OBzl)-Ala-Arg-AMC). It is filed as biochemical. The note with it: factor XIa from Kordia, 15 min preincubation, 30 min at 22° C., fluorescence; some as mean values from multiple determinations. Here is the method:
The factor XIa inhibition of the substances according to the invention is determined using a biochemical test system which utilizes the reaction of a peptidic factor XIa substrate to determine the enzymatic activity of human factor XIa. Here, factor XIa cleaves from the peptidic factor XIa substrate the C-terminal aminomethylcoumarin (AMC), the fluorescence of which is measured. The determinations are carried out in microtitre plates.
Test substances are dissolved in dimethyl sulfoxide and serially diluted in dimethyl sulfoxide (3000 μM to 0.0078 μM; resulting final concentrations in the test: 50 μM to 0.00013 μM). In each case 1 μl of the diluted substance solutions is placed into the wells of white microtitre plates from Greiner (384 wells). 20 μl of assay buffer (50 mM of Tris/HCl pH 7.4; 100 mM of sodium chloride; 5 mM of calcium chloride; 0.1% of bovine serum albumin) and 20 μl of factor XIa from Kordia (0.45 nM in assay buffer) are then added successively. After 15 min of incubation, the enzyme reaction is started by addition of 20 μl of the factor XIa substrate Boc-Glu(OBzl)-Ala-Arg-AMC dissolved in assay buffer (10 μM in assay buffer) from Bachem, the mixture is incubated at room temperature (22° C.) for 30 min and fluorescence is then measured (excitation: 360 nm, emission: 460 nm). The measured emissions of the test batches with test substance are compared to those of control batches without test substance (only dimethyl sulfoxide instead of test substance in dimethyl sulfoxide), and IC50 values are calculated from the concentration/activity relationships.

The source of these data is patent US20220144848A1, “SUBSTITUTED OXOPYRIDINE DERIVATIVES” (Bayer Aktiengesellschaft, priority 2018, published 2022).

T2 sequence (P03951 388-625 limits assumed): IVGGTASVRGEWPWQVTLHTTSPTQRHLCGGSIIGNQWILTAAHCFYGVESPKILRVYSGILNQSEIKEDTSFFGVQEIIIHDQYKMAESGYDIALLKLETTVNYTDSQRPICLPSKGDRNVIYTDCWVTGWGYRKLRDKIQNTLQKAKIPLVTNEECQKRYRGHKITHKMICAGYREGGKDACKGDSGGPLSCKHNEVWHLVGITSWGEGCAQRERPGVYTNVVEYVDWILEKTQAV
T2 sequence (P03951 19-387 partner limits assumed): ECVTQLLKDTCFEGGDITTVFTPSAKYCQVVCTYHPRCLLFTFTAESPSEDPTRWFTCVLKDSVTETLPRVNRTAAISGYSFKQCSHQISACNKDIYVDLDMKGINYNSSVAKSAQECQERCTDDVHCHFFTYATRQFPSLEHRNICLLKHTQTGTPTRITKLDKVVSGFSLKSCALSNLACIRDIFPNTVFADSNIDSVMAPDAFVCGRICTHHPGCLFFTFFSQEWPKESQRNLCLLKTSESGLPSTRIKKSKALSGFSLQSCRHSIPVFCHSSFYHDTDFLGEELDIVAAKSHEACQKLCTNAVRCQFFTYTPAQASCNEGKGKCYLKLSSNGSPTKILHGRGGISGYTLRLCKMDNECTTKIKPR
T1 sequence (P03952 391-638 limits assumed): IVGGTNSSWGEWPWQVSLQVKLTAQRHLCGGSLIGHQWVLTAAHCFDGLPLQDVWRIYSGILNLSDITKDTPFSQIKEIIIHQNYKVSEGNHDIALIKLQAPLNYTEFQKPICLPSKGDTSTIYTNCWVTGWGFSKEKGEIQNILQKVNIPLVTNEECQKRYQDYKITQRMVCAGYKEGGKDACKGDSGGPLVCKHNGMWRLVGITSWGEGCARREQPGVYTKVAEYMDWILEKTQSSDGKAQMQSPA
T1 sequence (P03952 20-390 partner limits assumed): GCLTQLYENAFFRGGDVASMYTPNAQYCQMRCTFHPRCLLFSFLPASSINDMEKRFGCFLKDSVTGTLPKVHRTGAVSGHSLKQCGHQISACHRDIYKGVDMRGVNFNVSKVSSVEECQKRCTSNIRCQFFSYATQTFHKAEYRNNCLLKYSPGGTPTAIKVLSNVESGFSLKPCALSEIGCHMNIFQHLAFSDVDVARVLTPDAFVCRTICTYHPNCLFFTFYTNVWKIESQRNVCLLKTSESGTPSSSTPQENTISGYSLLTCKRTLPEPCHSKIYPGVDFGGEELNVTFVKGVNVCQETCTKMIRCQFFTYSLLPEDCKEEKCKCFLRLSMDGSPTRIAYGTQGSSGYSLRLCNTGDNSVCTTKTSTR

On to `C[C@@H](C(=O)Nc1ccc(C(N)=O)cc1)n1cc2c(cc1=O)-c1c(ccc(Cl)c1F)C[C@@H](C(F)(F)F)OC2` (single isomer, unassigned) [Example 77], for which the IC50 against human plasma kallikrein was found to be 0.22 µM; against human factor XIa, 0.0096 µM.
Take `C[C@@H]1Cc2ccc(Cl)cc2-c2cc(=O)n([C@@H](C[C@@H]3CCCCO3)C(=O)Nc3ccc(C(N)=O)c(F)c3)cc2CO1` (single isomer, unassigned) [Example 2]: the IC50 stood at 0.32 µM at human plasma kallikrein and 0.0055 µM against human factor XIa.
As to `NC(=O)c1ccc(NC(=O)C(C[C@@H]2COCCO2)n2cc3c(cc2=O)-c2cc(Cl)ccc2CC(C(F)(F)F)OC3)cc1` (mixture of isomers) [Example 58, 4-({2-[11-Chloro-2-oxo-7-(trifluoromethyl)-7,8-dihydro-2H-[3]benzoxocino[5,6-c]pyridin-3(5H)-yl]-3-[(2R)-1,4-dioxan-2-yl]propanoyl}amino)benzamide], the IC50 at human plasma kallikrein is 0.23 µM; on human factor XIa it was 0.0021 µM.
Consider `CO[C@@H](C)C[C@@H](C(=O)Nc1ccc(C(N)=O)cc1)n1cc2c(cc1=O)-c1c(ccc(Cl)c1F)C[C@@H](C)OC2` (single isomer, unassigned) [Example 29], for which the IC50 at human plasma kallikrein stood at 0.047 µM; at human factor XIa it was 0.0016 µM.
For the molecule `CC[C@@H](C(=O)Nc1ccc(C(N)=O)cc1)n1cc2c(cc1=O)-c1c(ccc(Cl)c1Cl)C[C@@H](C(F)(F)F)OC2` (single isomer, unassigned) [Example 70], the IC50 is 0.58 µM at human plasma kallikrein and 0.064 µM at human factor XIa.
Turning to `C[C@@H]1Cc2ccc(Cl)cc2-c2cc(=O)n([C@@H](C[C@H](C)OC(F)F)C(=O)Nc3ccc(C(N)=O)cc3)cc2CO1` (single isomer, unassigned) [Example 19], the half-inhibitory concentration (IC50) against human plasma kallikrein was 0.11 µM; at human factor XIa, 0.0036 µM.
The corresponding values for `COCC[C@@H](C(=O)Nc1ccn2ncnc2c1)n1cc2c(cc1=O)-c1cc(Cl)ccc1C[C@@H](C(F)(F)F)OC2` (single isomer, unassigned) [Example 65] are 0.12 µM and 0.0068 µM.
Take `CC[C@@H](C(=O)Nc1ccc(C(N)=O)c(F)c1)n1cc2c(cc1=O)-c1cc(Cl)ccc1CC(C(F)F)OC2` (mixture of isomers) [Example 46, 4-({(2S)-2-[11-Chloro-7-(difluoromethyl)-2-oxo-7,8-dihydro-2H-[3]benzoxocino[5,6-c]pyridin-3(5H)-yl]butanoyl}amino)-2-fluorobenzamide]: the 50% inhibitory concentration (IC50) against human plasma kallikrein is 2.3 µM; at human factor XIa, 0.11 µM.
The corresponding values for `CO[C@@H](C)C[C@@H](C(=O)Nc1ccc(C(N)=O)cc1)n1cc2c(cc1=O)-c1cc(Cl)ccc1C[C@@H](C)OC2` (single isomer, unassigned) [Example 13] are 0.205 µM and 0.0046 µM.
For the molecule `C[C@@H]1Cc2ccc(Cl)cc2-c2cc(=O)n([C@@H](C[C@@H]3COCCO3)C(=O)Nc3ccc(C(N)=O)cc3)cc2CO1` (single isomer, unassigned) [Example 10], the 50% inhibitory concentration (IC50) stood at 0.087 µM against human plasma kallikrein and 0.0012 µM against human factor XIa.
The corresponding values for `CC1Cc2ccc(Cl)cc2-c2cc(=O)n(C(C[C@@H]3COCCO3)C(=O)Nc3ccc(C(N)=O)c(F)c3)cc2CO1` (mixture of isomers) [Example 7, 4-({2-(11-Chloro-7-methyl-2-oxo-7,8-dihydro-2H-[3]benzoxocino[5,6-c]pyridin-3(5H)-yl)-3-[(2R)-1,4-dioxan-2-yl]propanoyl}amino)-2-fluorobenzamide] are 0.78 µM and 0.014 µM.
On the same counts, the results for `CO[C@@H](C)C[C@@H](C(=O)Nc1ccc(C(N)=O)cc1)n1cc2c(cc1=O)-c1cc(Cl)ccc1C[C@@H](C)O[C@H]2C` (single isomer, unassigned) [Example 74] are 0.03 µM and 0.0014 µM.
On the same counts, the results for `C[C@@H]1Cc2ccc(Cl)cc2-c2cc(=O)n([C@@H](C[C@@H]3CCCCO3)C(=O)Nc3ccc(C(N)=O)nc3)cc2CO1` (single isomer, unassigned) [Example 4] are 0.42 µM and 0.0024 µM.
With `NC(=O)c1ccc(NC(=O)[C@H](C[C@@H]2CCCCO2)n2cc3c(cc2=O)-c2c(ccc(Cl)c2F)C[C@@H](C(F)(F)F)OC3)cc1` (single isomer, unassigned) [Example 69], the IC50 against human plasma kallikrein was determined as 0.055 µM; against human factor XIa it was 0.0011 µM.
On the same counts, the results for `CC[C@@H]1Cc2ccc(Cl)cc2-c2cc(=O)n([C@@H](C[C@@H]3CCCCO3)C(=O)Nc3ccc(C(N)=O)c(F)c3)cc2CO1` (single isomer, unassigned) [Example 31] are 0.98 µM and 0.013 µM.
On the same counts, the results for `CO[C@@H](C)C[C@@H](C(=O)Nc1ccc(C(N)=O)cc1)n1cc2c(cc1=O)-c1c(ccc(Cl)c1F)C[C@@H](C(F)(F)F)OC2` (single isomer, unassigned) [Example 78] are 0.074 µM and 0.0015 µM.
As to `C[C@@H]1Cc2ccc(Cl)cc2-c2cc(=O)n(C(CCOC(F)F)C(=O)Nc3ccc(C(N)=O)cc3)cc2CO1` (mixture of isomers) [Example 16, 4-{2-[(7R)-11-Chlor-7-methyl-2-oxo-7,8-dihydro-2H-[3]benzoxocino[5,6-c]pyridin-3(5H)-yl]-4-(difluoromethoxy)butanamido}benzamide], the IC50 against human plasma kallikrein was 0.11 µM; against human factor XIa, 0.0035 µM.
On the same counts, the results for `NC(=O)c1ccc(NC(=O)[C@H](C[C@@H]2COCCO2)n2cc3c(cc2=O)-c2cc(Cl)ccc2C[C@@H](CO)OC3)cc1` (single isomer, unassigned) [Example 37] are 0.32 µM and 0.006 µM.
Take `NC(=O)c1ccc(NC(=O)C(C[C@@H]2CCCCO2)n2cc3c(cc2=O)-c2cc(Cl)ccc2CC(CO)OC3)cc1` (mixture of isomers) [Example 34, 4-{2-[11-Chloro-7-(hydroxymethyl)-2-oxo-7,8-dihydro-2H-[3]benzoxocino[5,6-c]pyridin-3(5H)-yl]-3-[(2S)-tetrahydro-2H-pyran-2-yl]propanamido}benzamide]: the IC50 against human plasma kallikrein turned out to be 0.49 µM; against human factor XIa it was 0.0069 µM.
For the molecule `CC1Cc2ccc(Cl)cc2-c2cc(=O)n(C(CCOC(C)(C)C)C(=O)Nc3ccc(C(N)=O)c(F)c3)cc2CO1` (mixture of isomers) [Example 21, 4-{[4-tert-Butoxy-2-(11-chloro-7-methyl-2-oxo-7,8-dihydro-2H-[3]benzoxocino[5,6-c]pyridin-3(5H)-yl)butanoyl]amino}-2-fluorobenzamide], the results for the IC50 on human plasma kallikrein and on human factor XIa were 0.83 µM and 0.063 µM, respectively.
On the same counts, the results for `COCC[C@@H](C(=O)Nc1ccc(C(N)=O)cc1)n1cc2c(cc1=O)-c1cc(Cl)ccc1C[C@@H](C(F)(F)F)OC2` (single isomer, unassigned) [Example 63] are 0.11 µM and 0.0025 µM.
On the same counts, the results for `CC1Cc2ccc(Cl)cc2-c2cc(=O)n(C(C[C@@H]3CCCCO3)C(=O)Nc3ccc(C(N)=O)c(F)c3)cc2CO1` (single isomer, unassigned) [Example 1] are 0.63 µM and 0.011 µM.
On to `C[C@@H]1Cc2ccc(Cl)cc2-c2cc(=O)n([C@@H](CCOC(C)(C)C)C(=O)Nc3ccc(C(N)=O)cc3)cc2CO1` (single isomer, unassigned) [Example 24], for which the IC50 at human plasma kallikrein was determined as 0.11 µM; against human factor XIa, 0.0054 µM.
The corresponding values for `CO[C@H](C[C@@H](C(=O)Nc1ccc(C(N)=O)cc1)n1cc2c(cc1=O)-c1cc(Cl)ccc1C[C@@H](C)OC2)C(F)F` (single isomer, unassigned) [Example 15] are 0.14 µM and 0.0034 µM.
For the molecule `CC[C@@H](C(=O)Nc1ccc(C(N)=O)cc1)n1cc2c(cc1=O)-c1c(ccc(Cl)c1F)C[C@@H](C(F)(F)F)OC2` (single isomer, unassigned) [Example 68], the IC50 at human plasma kallikrein was 0.17 µM; against human factor XIa it was 0.0069 µM.
`CC(C)[C@@H]1Cc2ccc(Cl)cc2-c2cc(=O)n([C@@H](C[C@@H]3CCCCO3)C(=O)Nc3ccc(C(N)=O)c(F)c3)cc2CO1` (single isomer, unassigned) [Example 39] displayed an IC50 against human plasma kallikrein of 2 µM.
